The source of these data is patent US9556169B2, “Compounds and compositions for the treatment of parasitic diseases” (NOVARTIS AG, priority 2012, dated 2017).

Where two headings read alike, the source gives them in different places.

The subject of assay [1] is Plasmodium yoelii (17XNL) sporozoites. Nature of the assay: Liver stage P. yoelii sporozoite invasion assay in HepG2-A16-CD81EGFP cells. The assay is classed as cell-based. From the text: Assay for Proliferation of Parasite in Infected Liver Cells
Compounds of the invention can be assayed to measure their capacity to inhibit proliferation of parasites in liver cells. The proliferation is quantified by determine the number of infected cells by immunofluorescence.
Due to the difficulty of successfully infecting immortalized human liver cell lines with the human malaria sporozoites (liver-stage parasite), rodent malaria sporozoites from Plasmodium yoelii (17XNL) and P. berghei (ANKA) are the preferred surrogate. Sporozoites are obtained from Anopheles stephensi mosquitoes supplied by the New York University Insectary, which ships the malaria-infected mosquitoes 10-13 days following the ingestion of an infective blood meal.
A transgenic HepG2 cell line expressing the tetraspanin CD81 receptor (HepG2-A16-CD81^EGFP) is used to increase the infectivity rate of rodent-malaria sporozoites into human cells. HepG2-A16-CD81^EGFP cells are stably transformed to express a GFP-CD81 fusion protein. A continuous in vitro culture of this line was maintained at 37° C. in 4% CO2 in complete media (CM) which contains: DMEM (Invitrogen, Carlsbad, USA) supplemented with 10% FCS, 0.29 mg/ml glutamine, 100 units penicillin and 100 μg/ml streptomycin (SigmaAldrich, USA).
Liver Stage P. yoelii Sporozoite Invasion Assay
Twenty to twenty-six hours prior to sporozoite infection, 7.5×10^3 HepG2-A16-CD81^EGFP cells are seeded into 384-well plates (Aurora 384 IQ-EB black plates with clear bottoms; 50 μl of 1.5×10^5 cells/ml in CM). These plates are incubated at 37° C. with 4% CO2 overnight. Two hours prior to infection, 50 nl of compound dissolved in DMSO (0.1% final DMSO concentration per well) were transferred with a PinTool (GNF Systems) into the assay plates (10 μM final concentration). A 1:3 serial dilution of atovaquone (10 μM at the highest final concentration) and wells treated only with DMSO were used as positive and negative controls, respectively.
Freshly dissected salivary glands from infected mosquitoes were homogenized in a glass tissue grinder, filtered twice through Nylon cell strainers (40 μm pore size, BD Falcon) and counted using a hemocytometer. The assay plate with HepG2-A16-CD81^EGFP cells and compound were then infected with 8×10^3 sporozoitesper well and the plates are subjected to a centrifugal force of 650×g to pellet the sporozoites onto the liver cell monolayer. The assay plate is incubated at 37° C. for 2 hours to permit sporozoite invasion, then the media is aspirated from the media plate, and replaced with 50 μl CM (containing a 5× concentration of penicillin/streptomycin; 500 units penicillin and 0.5 mg streptomycin per ml) per well. 50 nl of compound is re-introduced by PinTool and the assay plate incubated for 48 hours at 37° C. before quantification of infected cells by immunofluorescence.
Atovaquone and uninfected wells were used as controls on each plate. Two replicate plates are tested for each assay.
After fixing the cells by addition of 12.5 μl of 20% solution of paraformaldehyde (EMS, Hatfield, USA) to each assay well (4% final formaldehyde concentration), membranes were permeabilized with 0.5% Triton-X-100 (Thermo Fisher Scientific) and EEFs were stained using a mouse polyclonal serum raised against the Plasmodium yoelii heat shock protein 70 (PyHSP70), a DyLight 649 goat anti-mouse IgG, Fc(gamma) fragment specific secondary antibody (Jackson Immuno Research, Cat#115-495-071) and the Hoechst 33342 nucleic acid dye (Invitrogen, Carlsbad, USA). Stained EEFs were then quantified using the Opera Confocal High Content Screening System (Perkin Elmer, Waltham, USA). Images were collected using a 20× objective lens (20×/0.45 NA, LWD Plan Fluor, Olympus) at a binning of 2, using a 365 nm Xeon arc lamp illumination to detect the Hoechst-labeled nuclei and 635 nm laser line to excite DyLight649-labeled parasites. The image resolution yielded was approximately 0.66 μm/pixel (˜0.43 μm 2/pixel). […]

For assay [2], the system named is P. falciparum (NF54 or 3D7 strain). Nature of the assay: P. falciparum proliferation assay in infected human blood cells (SYBR Green). It is filed as cell-based. To be noted: Plasmodium falciparum. In outline:
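Asexual NF54 or 3D7 parasites in O+ human erythrocytes (final 2.5% hematocrit, 0.3% parasitemia) exposed to compound for 72 h at 37 °C under 93% N2/4% CO2/3% O2. Lysis with SYBR Green I overnight at rt; fluorescence (ex 425/em 530 nm) tracks parasite DNA, giving EC50.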

[3] abbreviates: read-out: EC50, P. yoelii Sporozoite Invasion Assay.
Setting [4] is: read-out: EC50, P. falciparum Proliferation Assay.
Where [5] appears, read: Erythrocyte, infected human erythrocytes, 72 hours, SYBR Green fluorescence, read-out: EC50 (nM), inhibitory efficacy in delaying P. falciparum proliferation in infected human blood cells.
Where [6] appears, read: values without * in Table 2, HepG2-A16-CD81EGFP liver cells, 48 hours, immunofluorescence, read-out: EC50 (nM), P. yoelii Sporozoite Invasion Assay.

As for `CN(C(=O)c1ccn2ncc(-c3ccc(C(F)(F)F)cc3)c2c1)c1ccc(C#N)cc1` [Example 1, N-(4-cyanophenyl)-N-methyl-3-(4-(trifluoromethyl)phenyl)pyrazolo[1,5-a]pyridine-5-carboxamide], the EC50 in assay [1] (setting [3]) is less than 10 nM.
Same read-out and setting: the figure for `CN(C(=O)c1ccn2ncc(-c3ccc(C(N)=O)cc3)c2c1)c1ccc(C#N)cc1` [Example 19, 3-(4-carbamoylphenyl)-N-(4-cyanophenyl)-N-methylpyrazolo[1,5-a]pyridine-5-carboxamide] is less than 10 nM.
For the compound `CN(C(=O)c1ccn2ncc(-c3ccc(C(N)=O)cc3)c2c1)c1ccc(C#N)cn1` [Example 32, 3-(4-carbamoylphenyl)-N-(5-cyanopyridin-2-yl)-N-methylpyrazolo[1,5-a]pyridine-5-carboxamide], the figures for the EC50 in assay [2] (setting [4]) and in assay [1] (setting [3]) were less than 5 nM and less than 10 nM, respectively.
For the compound `CNC(=O)c1ccc(-c2cnn3ccc(C(=O)N(C)c4ccc(C#N)cn4)cc23)cc1` [Example 75, N-(5-cyanopyridin-2-yl)-N-methyl-3-(4-(methylcarbamoyl)phenyl)pyrazolo[1,5-a]pyridine-5-carboxamide], the EC50 was less than 5 nM in assay [2] (setting [4]) and less than 10 nM in assay [1] (setting [3]).
Take `CCN(C(=O)c1ccn2ncc(-c3ccc(C(=O)NC)cc3)c2c1)c1ccc(C#N)cn1` [Example 90, N-(5-Cyanopyridin-2-yl)-N-ethyl-3-(4-(methylcarbamoyl)phenyl)pyrazolo[1,5-a]pyridine-5-carboxamide]: the EC50 in assay [2] (setting [5]) was determined as 8 nM; in assay [1] (setting [6]), 39 nM.
On the same counts, the results for `CNC(=O)c1ccc(-c2cnn3ccc(C(=O)N(c4ccc(C#N)cn4)C(C)C)cc23)cc1` [Example 91, N-(5-cyanopyridin-2-yl)-N-isopropyl-3-(4-(methylcarbamoyl)phenyl)pyrazolo[1,5-a]pyridine-5-carboxamide] are 13 nM and 23 nM.
As for `CNC(=O)c1ccc(-c2cnn3ccc(C(=O)N(c4ccc(C#N)cn4)C4CC4)cc23)cc1` [Example 93, N-(5-Cyanopyridin-2-yl)-N-cyclopropyl-3-(4-(methylcarbamoyl)phenyl)pyrazolo[1,5-a]pyridine-5-carboxamide], the values for the EC50 in assay [2] (setting [5]) and in assay [1] (setting [6]) were 6 nM and 10 nM, respectively.
`CNC(=O)c1ccc(-c2cnn3ccc(C(=O)N(C)c4ccc(C#N)cc4)cc23)cn1` [Example 97, N-(4-Cyanophenyl)-N-methyl-3-(6-(methylcarbamoyl)pyridin-3-yl)pyrazolo[1,5-a]pyridine-5-carboxamide]: the figures for the EC50 in assay [2] (setting [5]) and in assay [1] (setting [6]) were 13 nM and 92 nM, respectively.
Take `CN(C(=O)c1ccn2ncc(-c3cnc(Cl)c(N)c3)c2c1)c1ccc(C#N)cn1` [Example 98, 3-(5-Amino-6-chloropyridin-3-yl)-N-(5-cyanopyridin-2-yl)-N-methylpyrazolo[1,5-a]pyridine-5-carboxamide]: the figures for the EC50 in assay [2] (setting [5]) and in assay [1] (setting [6]) were 19 nM and 2060 nM, respectively.
On the same counts, the results for `CNC(=O)c1ccc(-c2cnn3ccc(C(=O)N(C)c4ccc(Cl)cc4)cc23)cc1` [Example 99, N-(4-Chlorophenyl)-N-methyl-3-(4-(methylcarbamoyl)phenyl)pyrazolo[1,5-a]pyridine-5-carboxamide] are 1 nM and 15 nM.
In the same order, the values of `CN(C(=O)c1ccn2ncc(-c3ccc(C(N)=O)cc3)c2c1)c1ccc(Cl)cc1` [Example 100, 3-(4-Carbamoylphenyl)-N-(4-chlorophenyl)-N-methylpyrazolo[1,5-a]pyridine-5-carboxamide] are 9 nM and 20 nM.
Regarding `CN(C(=O)c1ccn2ncc(-c3ccc(C(=O)NCCO)cc3)c2c1)c1ccc(C#N)cn1` [Example 102, N-(5-Cyanopyridin-2-yl)-3-(4-((2-hydroxyethyl)carbamoyl)phenyl)-N-methylpyrazolo[1,5-a]pyridine-5-carboxamide], the figures for the EC50 in assay [2] (setting [5]) and in assay [1] (setting [6]) were 10 nM and 660 nM, respectively.
With `CNC(=O)c1ccc(-c2cnn3ccc(C(=O)N(C)c4ccc(C(F)(F)F)cc4)cc23)cc1` [Example 103, N-Methyl-3-(4-(methylcarbamoyl)phenyl)-N-(4-(trifluoromethyl)phenyl)pyrazolo[1,5-a]pyridine-5-carboxamide], the EC50 in assay [2] (setting [5]) was 3 nM; in assay [1] (setting [6]), 62 nM.
In the case of `CN(C(=O)c1ccn2ncc(-c3ccc(C(=O)NCCN)cc3)c2c1)c1ccc(C#N)cn1` [Example 104, 3-(4-((2-Aminoethyl)carbamoyl)phenyl)-N-(5-cyanopyridin-2-yl)-N-methylpyrazolo[1,5-a]pyridine-5-carboxamide], the EC50 is 125 nM in assay [2] (setting [5]) and 1200 nM in assay [1] (setting [6]).
In the same order, the values of `CN(C(=O)c1ccn2ncc(-c3cnc(Cl)c(NS(C)(=O)=O)c3)c2c1)c1ccc(C#N)cn1` [Example 107, 3-(6-Chloro-5-(methylsulfonamido)pyridin-3-yl)-N-(5-cyanopyridin-2-yl)-N-methylpyrazolo[1,5-a]pyridine-5-carboxamide] are 10 nM and 180 nM.
In the case of `CN(C(=O)c1ccn2ncc(-c3ccnc(N)c3)c2c1)c1ccc(C#N)cn1` [Example 108, 3-(2-Aminopyridin-4-yl)-N-(5-cyanopyridin-2-yl)-N-methylpyrazolo[1,5-a]pyridine-5-carboxamide], the EC50 in assay [2] (setting [5]) came out at 2470 nM; in assay [1] (setting [6]), 472 nM.
For `CNC(=O)c1ccc(-c2cnn3ccc(C(=O)N(C)c4ccc(Cl)cc4)cc23)cn1` [Example 109, N-(4-Chlorophenyl)-N-methyl-3-(6-(methylcarbamoyl)pyridin-3-yl)pyrazolo[1,5-a]pyridine-5-carboxamide], the results for the EC50 in assay [2] (setting [5]) and in assay [1] (setting [6]) were 19 nM and 62 nM, respectively.
On the same counts, the results for `CNC(=O)c1ccc(-c2cnn3ccc(C(=O)N(CCO)c4ccc(C#N)cc4)cc23)cc1` [Example 110, N-(4-Cyanophenyl)-N-(2-hydroxyethyl)-3-(4-(methylcarbamoyl)phenyl)pyrazolo[1,5-a]pyridine-5-carboxamide] are 54 nM and 253 nM.
On the same counts, the results for `CNC(=O)c1ccc(-c2cnn3ccc(C(=O)N(C)c4ccc(OCCN)cn4)cc23)cc1` [Example 111, N-(5-(2-Aminoethoxyl)pyridin-2-yl)-N-methyl-3-(4-(methylcarbamoyl)phenyl)pyrazolo[1,5-a]pyridine-5-carboxamide] are 6300 nM and greater than 10000 nM.
On the same counts, the results for `CNC(=O)c1ccc(-c2cnn3ccc(C(=O)N(c4ccc(C#N)cn4)C4CCC4)cc23)cc1` [Example 112, N-(5-Cyanopyridin-2-yl)-N-cyclobutyl-3-(4-(methylcarbamoyl)phenyl)pyrazolo[1,5-a]pyridine-5-carboxamide] are 4 nM and 9 nM.
In the case of `CN(C(=O)c1ccn2ncc(-c3ccc(C(=O)NC4CCNCC4)cc3)c2c1)c1ccc(C#N)cn1` [Example 113, N-(5-Cyanopyridin-2-yl)-N-methyl-3-(4-(piperidin-4-ylcarbamoyl)phenyl)pyrazolo[1,5-a]pyridine-5-carboxamide], the EC50 in assay [2] (setting [5]) is 311 nM; in assay [1] (setting [6]), 1650 nM.
